# Assay results published in US20240058335A1, “METHODS FOR TREATMENT OF CANCER USING ABL INHIBITORS AND DRUGS TARGETING THE MEVALONATE PATHWAY” (Duke University, priority 2021, published 2024).
# Where two headings read alike, the source gives them in different places.
# How the values were obtained:
# [1] = system: PC9 GR4 cells; test: Cell viability dose-response assay (CellTiter-Glo), IC50 calculation; format: cell-based, human
# [2] = system: H460 cells; test: as above; format: cell-based, human
# [3] = system: H358 cells; test: as above; format: cell-based, human
# [4] = system: PC9 BrM3 cells; test: as above; format: cell-based, human; conditions: read-out: Calculated IC50
# [5] = system: lung cancer cells (PC9, PC9 GR4, H460, H358); test: Seahorse XF Analyzer Mito Stress Test (OCR: basal respiration, maximal respiration, ATP production); format: cell-based, human; conditions: for mitochondrial function (basal respiration, maximal respiration, ATP production; OCR): IC50 doses, 24 hours, PC9, PC9 GR4, H460, H358; for mitochondrial respiration in cells treated with ABL001 and simvastatin (MVA rescue and its reversal): PC9 GR4, added to ABL001 + simvastatin (inhibitors with MVA)
# Excerpt: (FIGS. 2A-2D) Seahorse XF Analyzer Mito Stress Test analysis of mitochondrial basal respiration, maximal respiration, and ATP production as measured by changes in oxygen consumption rate (OCR). […] (FIG. 2E) Mitochondrial basal respiration, maximal respiration, and ATP production as measured by Seahorse XF Analyzer's Mito Stress Test for PC9 cells harboring shRNAs against ABL1/ABL2 (shAA) and non-targeting control (shSCR). (FIGS. 2F-2G) Mitochondrial ROS (MitoROS) release as measured by FACS analysis of median fluorescent intensity (MFI) using Mitosox probe. […] Data are mean±SEM. […] Seahorse XF Analyzer Mito Stress Test analysis of mitochondrial basal respiration, maximal respiration, and ATP production as measured by changes in oxygen consumption rate (OCR) in the indicated lung cancer cells: (FIG. 8A) PC9; (FIG. 8B) PC9 GR4; (FIG. 8C) H460. […] Doses correspond to IC50 dose for each drug in the corresponding cell line. In each graph, for each of Basal Respiration, Maximal Respiration, and ATP production, data is shown from left to right for DMSO, GNF5, and Nilotinib. […] Cells were treated with IC50 doses for 24 hours (n=3). Data are mean±SEM. […] SEAHORSE MEASUREMENTS. Basal and maximal oxygen consumption rate and ATP production were measured using a Mito Stress test Kit and XF96 Extracellular Flux Analyzer (Seahorse Bioscience), according to manufacturer's instructions. Cells were plated in XF96 plates at 10,000 cells per well on Day 0. […] The plate was incubated in a non-CO2 incubator at 37° C. for 1 hr to equilibrate.
# [6] = system: PC9, PC9 GR4 and H460 cells; test: MitoSOX staining, mitochondrial ROS by FACS; format: cell-based, human; conditions: EGFR mutant PC9 and PC9 GR4 cells, IC50 doses, 24 hours
# [7] = system: PC9 and H460 cells; test: MitoTracker staining, mitochondria number and morphology; format: cell-based, human; conditions: IC50 dose, 24 hours
# Description: (FIG. 9A) Mitochondrial basal respiration, maximal respiration, and ATP production as measured by changes in oxygen consumption rate (OCR) from Seahorse XF Analyzer Mito Stress Test analysis for H460 cells harboring shRNAs against ABL1/ABL2 (shAA) and non-targeting control (shSCR). (FIG. 9B) FACS analysis of mitochondrial ROS (MitoROS) using mitosox probe in H460 cells treated with 15 NM GNF5, 15 NM ABL001, and 0.5 nM Docetaxel for 24 hours. n=3 (FIGS. 9C-9D) MitoROS in H460 AA knockdown cells (FIG. 9C) or PC9 AA knockdown cells (FIG. 9D). (FIGS. 9E-9F) M[…] to analyze mitochondria number in H460 cells with 15 NM GNF5 (FIG. 9E) or PC9 cells treated with 10 NM GNF5 (FIG. 9F). n=3 (FIGS. 9G-9H) M[…] of H460 AA knockdown cells (FIG. 9G) or PC9 AA knockdown cells (FIG. 9H). n=3 Statistical analysis was calculated using unpaired two-tailed t test *p<0.05, Data are mean±SEM. (FIG. 9I) H460 cells stained with Mitotracker and Hoescht 33342 following treatment with IC50 dose for each drug for 24 hours. Image quantification showing mitochondrial length×width plotted for thousands of mitochondria from >10 cells across at least two independent experiments. Changes were not statistically significant.
# M[…] . MitoTracker Red CMXRos was purchased from Thermofisher (cat. M7512). […] The samples were analyzed using flow cytometer BD FACS Canto II. […]
# [8] = system: lung cancer cells (PC9, PC9 GR4, PC9 BrM3, H460, H358); test: 72 hr growth inhibition / cell viability assay with drug combinations and metabolite rescue; format: cell-based, human; conditions: for cell survival in the presence of statins: PC9-BrM3, sub-therapeutic doses, 72 hrs; for cell survival on co-treatment with ABL001: PC9 GR4, PC9 and H460 cells; for rescue of cell survival in cells co-treated with ABL001 and simvastatin: metabolite supplement, 72 hours, PC9 GR4, PC9, H460
# [9] = system: PC9 cells; test: cells; conditions: Homo sapiens, PC-9, read-out: Calculated IC50
# [10] = cited from earlier work
# [11] = system: PC9 cells; conditions: read-out: Calculated IC50, dose-response assay
# [12] = system: lung cancer cells (PC9, PC9 GR4, PC9 BrM3, H460); test: Immunoblotting of apoptosis, prenylation and cytochrome c markers; format: cell-based, human; conditions: 24 hr
# [13] = system: PC9 GR4 cells; test: Real-time quantitative PCR of BCL-2 family mRNAs; format: cell-based, human; conditions: PC9 GR4, metabolite supplement, 24 hours
# Description: (FIG. 5E) Immunoblots of cytochrome c, cleaved PARP, β-catenin, GAPDH, and β-Tubulin. […] Cytoplasmic, membrane, and whole cell fractions are shown for drug treatments. […] Data are mean±SEM. REAL-TIME QUANTITATIVE PCR. RNA was isolated from subconfluent monolayers of cancer cells using the RNeasy RNA isolation kit (QIAGEN), and cDNA synthesis was performed using oligo(dT) primers and M-MLV reverse transcriptase (Invitrogen). RT-qPCR was performed in triplicate wells using iTaq Universal SYBR Green Supermix (Bio-Rad). Primers used in this study were purchased from Sigma Aldrich. Analysis of real-time data was collected using a Bio-Rad CFX384 machine and CFX Maestro software. Expression levels of each gene were normalized to GAPDH control housekeeping genes using the ddCT algorithm.
# [14] = Homo sapiens, PC9 GR4, dose-response assay, read-out: Calculated IC50
# [15] = Homo sapiens, NCI-H460, H460, dose-response assay, read-out: Calculated IC50
# [16] = Homo sapiens, NCI-H358, H358, dose-response assay, read-out: Calculated IC50
# [17] = Homo sapiens, PC9 BrM3, dose-response assay
# [18] = PC9 GR4, dose-response assay, read-out: Calculated IC50
# [19] = H460, dose-response assay, read-out: Calculated IC50
IC50 [9],"IC50 [1, 14]","IC50 [2, 15]",SMILES,"mitochondrial function (basal respiration, maximal respiration, ATP production; OCR) [5]",cell survival in the presence of statins [8],"IC50 [1, 18]","IC50 [2, 19]",mitochondrial respiration in cells treated with ABL001 and simvastatin (MVA rescue and its reversal) [5],IC50 [11],also measured
0.001 µM,0.001 µM,0.0005 µM,"CC(=O)O[C@@]12CO[C@@H]1C[C@H](O)[C@@]1(C)C(=O)[C@H](O)C3=C(C)[C@@H](OC(=O)[C@H](O)[C@@H](NC(=O)OC(C)(C)C)c4ccccc4)C[C@@](O)([C@@H](OC(=O)c4ccccc4)[C@H]21)C3(C)C [Docetaxel, docetaxel]",did not significantly impair,did not affect cell survival,,,,,"IC50 [3, 16]: 0.001 µM; IC50 [4, 17]: 0.001 µM"
,,,COC(=O)[C@H](CCSC)NC(=O)c1ccc(NC[C@@H](N)CS)cc1-c1ccccc1 [FTI-277],,,50 µM,15 µM,minimal effect,50 µM,cell survival on co-treatment with ABL001 ([8]; 72 hr): only slightly decreased
,,,CC(C)n1c(/C=C/C(O)CC(O)CC(=O)O)c(-c2ccc(F)cc2)c2ccccc21 (stereo not shown) [Fluvastatin],,,2 µM,4 µM,,2 µM,"IC50 ([3]; H358, dose-response assay, read-out: Calculated IC50): 4 µM; IC50 ([4]; PC9 BrM3, dose-response assay): 2 µM"
,,,"CC(C)=CCC/C(C)=C/CC/C(C)=C/CC/C(C)=C/COP(=O)(O)OP(=O)(O)O [GGPP, geranylgeranyl diphosphate]",,,,,,,rescue of cell survival in cells co-treated with ABL001 and simvastatin [8]: preferentially rescued cell viability
,,,COC(=O)[C@H](CC(C)C)NC(=O)c1ccc(NC[C@@H](N)CS)cc1-c1cccc2ccccc12 [GGTI-298],,,20 µM,15 µM,negated the MVA rescue,20 µM,cell survival on co-treatment with ABL001 ([8]; 72 hr): significantly impaired
,,,"COc1cc2ncnc(Nc3ccc(F)c(Cl)c3)c2cc1OCCCN1CCOCC1 [Gefitinib, gefitinib]",not impaired,did not affect cell survival,,,,,
,,,"C[C@@](O)(CCO)CC(=O)O [MVA, mevalonate]",,,,,restored mitochondrial respiration back to baseline,,"rescue of cell survival in cells co-treated with ABL001 and simvastatin [8]: could rescue cell survival; reversal of cytochrome c release ([12]; PC9 GR4, 500 μM MVA added to ABL001 and simvastatin): reversed; prevention of PARP and caspase-3 cleavage in cells co-treated with ABL001 and simvastatin ([12]; metabolite supplement): prevented cleavage of PARP and caspase-3; restoration of BCL-2 family gene expression in combination-treated cells [13]: restored gene expression back to baseline"
2 µM,2 µM,2 µM,Cc1cn(-c2cc(NC(=O)c3ccc(C)c(Nc4nccc(-c5cccnc5)n4)c3)cc(C(F)(F)F)c2)cn1 [Nilotinib],inability of Nilotinib to inhibit mitochondria function,,,,,,"cell viability on co-treatment with simvastatin or fluvastatin ([8]; PC9 GR4 and H460, sublethal doses, 72 hr): did not promote additive or synergistic decreases in cell viability"
4 µM,4 µM,12 µM,"CCC(C)(C)C(=O)O[C@H]1C[C@@H](C)C=C2C=C[C@H](C)[C@H](CC[C@@H]3C[C@@H](O)CC(=O)O3)[C@H]21 [Simvastatin, simvastatin]",,,,,,,"IC50 [3, 16]: 12 µM; IC50 [4, 17]: 4 µM"

SMILES,IC50 [9],"IC50 [1, 14]","IC50 [2, 15]","mitochondrial function (basal respiration, maximal respiration, ATP production; OCR) [5]",cell survival in the presence of statins [8],"IC50 [1, 18]","IC50 [2, 19]",mitochondrial respiration in cells treated with ABL001 and simvastatin (MVA rescue and its reversal) [5],IC50 [11],also measured
"O=C(Nc1ccc(OC(F)(F)Cl)cc1)c1cnc(N2CC[C@@H](O)C2)c(-c2ccn[nH]2)c1 [ABL001, Asciminib]",7.5 µM,,,greatly decreased,decreased cell survival,,,,,"IC50 ([1]; Homo sapiens, PC9/GR4, read-out: Calculated IC50): 7.5 µM; IC50 ([2]; Homo sapiens, NCI-H460, read-out: Calculated IC50): 15 µM; IC50 ([3]; Homo sapiens, NCI-H358, read-out: Calculated IC50): 15 µM; IC50 ([4]; Homo sapiens): 7.5 µM; mitochondrial reactive oxygen species (MitoROS) levels [6]: increased; mitochondrial morphology (length and width, network) [7]: marginal, nonsignificant increase; tolerability ([10]; mouse, in vivo, po): well tolerated; body weight ([10]; oral gavage, mice): does not induce weight loss; crossing of the BBB ([10]; preclinical mouse models): shown to cross the BBB"
